The values that follow come from ChEMBL document CHEMBL3112428, “Biological evaluation of diazene derivatives as anti-tubercular compounds” (Eur J Med Chem, 2014).

Values after ≈ are worked out from the molar mass of the structure shown.

As a reminder, the IC50 is the midpoint of a concentration-inhibition curve.

In this assay the test system is Mycobacterium tuberculosis variant bovis. The experiment in a line: Antituberculosis activity against Mycobacterium bovis AN5 expressing lux gene assessed as inhibition of bacterial replication after 6 days by luminometry analysis. It counts as functional, organism-based. The following applies: AN5, 144 h.
For the compound `O=C(/N=N/c1ccc([N+](=O)[O-])cc1)Nc1ccccc1`, the half-inhibitory concentration (IC50) came to 2.21 µg/mL (≈ 8.18 µM).

Consider `CCOC(=O)/N=N/C(=O)Nc1ccc(C)cc1`, for which the 50% inhibitory concentration (IC50) came to 2.78 µg/mL (≈ 11.8 µM).

Turning to `O=C(/N=N/c1ccc(C(F)(F)F)cc1)Nc1ccccc1`, the IC50 amounted to 1.05 µg/mL (≈ 3.58 µM).
